test system: peroxide produced in rat liver homogenates; test: Antioxidant activity: FeSO4-generated peroxides in rat liver homogenate, thiobarbituric acid reaction; type: biochemical; conditions: rat liver homogenate incubated with FeSO4, thiobarbituric acid reaction; read-out: IC50, antioxidant activity (peroxide production)
Description: Rat liver homogenates were prepared according to Fraga, C. G. et al. Free Radicals Biol. Med., 4, 155, 1988 and Kornburst D. J. et al. Lipids 15, 315, 1980.
Peroxides were generated by incubation of the homogenate with the FeSO4 as described by Quitanilha A. T. et al. Ann. N.Y., Acad. Sci. 393, 32, 1982.
Compounds to be tested for their antioxidant activity were dissolved in DMSO and added to the incubation mixture. The amount of peroxide produced was determined by the thiobarbituric acid reaction using malonaldehyde as standard.

Row | SMILES | IC50 [µM]
1 | CCOP(=O)(OCC)C(=Cc1cc(C(C)(C)C)c(O)c2ccccc12)P(=O)(OCC)OCC [Example 1] | 1.5
2 | CC(C)OP(=O)(OC(C)C)C(=Cc1cc(C(C)(C)C)c(O)c2ccccc12)P(=O)(OC(C)C)OC(C)C [Example 2] | 0.7
3 | CCOP(=O)(OCC)C(=Cc1cc(C(C)(C)C)c(O)c2c1CCCC2)P(=O)(OCC)OCC [Example 6, Tetraethyl 2-(3-tert-butyl-4-hydroxy-5,6,7,8-tetrahydronaphthyl)-ethenylidene-1,1-diphosphonate] | 7
4 | CC(C)OP(=O)(OC(C)C)C(=Cc1cc(C(C)(C)C)c(O)c2c1CCCC2)P(=O)(OC(C)C)OC(C)C [Example 8, Tetraispropyl 2-[3-tert-butyl-4-hydroxy-5,6,7,8-tetrahydronaphthyl]-ethenylidene-1,1-diphosphonate] | 2.5

Reference: patent US5204336A, “Naphthyl-,tetrahydronaphthyl-, and indanyl-substituted G-em-diphosphonates and process of use to treat hyperlipidemia” (Symphar S.A., priority 1992, dated 1993)
